The values that follow come from US11040033B2 (Gilead Sciences, Inc., priority 2017, dated 2021).

This experiment addresses T1, IDO1 (Homo sapiens, UniProt P14902).
T1 construct: HeLa cells were treated with a test compound in the presence of IFNγ, which induces IDO1 expression; endogenous in cells; host or cells: H1-HeLa cells (ATCC #CRL-1958), induced with IFNγ
The experiment is described as follows: Cell-based (HeLa) assay for measurement of IDO1 inhibition (kynurenine levels in supernatant after IFNγ induction). As to conditions: H1-HeLa cells, IFNγ-induced IDO1, 48 hour incubation, kynurenine absorbance at 480 nm; geometric mean of a minimum of four determinations. In short, it runs like this:
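HeLa cells (1,250/well, DMEM/10% FBS) exposed to compound (0.5% DMSO) with IFNγ (added as 50 ng/mL solution) for 48 h. Supernatant kynurenine measured after TCA treatment (60 °C, 30 min) with p-dimethylaminobenzaldehyde, A480. EC50 from four-parameter fit normalised to ±IFNγ controls; geometric mean of ≥4 runs.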

SMILES strings stand for the structures.

T1 sequence (P14902 whole entry): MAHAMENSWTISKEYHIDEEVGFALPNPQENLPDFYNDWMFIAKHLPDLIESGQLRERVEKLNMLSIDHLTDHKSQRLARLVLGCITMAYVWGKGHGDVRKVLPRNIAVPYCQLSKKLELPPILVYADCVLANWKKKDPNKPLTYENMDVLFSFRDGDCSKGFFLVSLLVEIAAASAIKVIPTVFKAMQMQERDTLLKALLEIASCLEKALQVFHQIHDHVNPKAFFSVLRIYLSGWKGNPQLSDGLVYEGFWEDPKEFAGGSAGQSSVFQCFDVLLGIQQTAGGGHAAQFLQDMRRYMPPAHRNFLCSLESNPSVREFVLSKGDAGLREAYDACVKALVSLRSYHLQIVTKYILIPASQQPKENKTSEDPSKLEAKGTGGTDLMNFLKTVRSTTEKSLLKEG

With `O=C(Nc1ccc(F)cc1)c1cc(-c2cccn3c(-c4cccc(F)c4F)ncc23)cnc1N1CCC1` [Example 94, 2-(azetidin-1-yl)-5-(3-(2,3-difluorophenyl)imidazo[1,5-a]pyridin-8-yl)-N-(4-fluorophenyl)nicotinamide], the concentration for a half-maximal effect (EC50) worked out at 124 nM.

Turning to `Fc1ccc2[nH]c(-c3cc(-c4cccn5c(-c6cccc(F)c6F)ncc45)ccc3C(F)(F)F)nc2c1` [Example 95, 2-(5-(3-(2,3-difluorophenyl)imidazo[1,5-a]pyridin-8-yl)-2-(trifluoromethyl)phenyl)-5-fluoro-1H-benzo[d]imidazole], a half-maximal response (EC50) required 24.3 nM.

Compound `Fc1ccc2[nH]c(-c3cc(-c4cccn5c(-c6cccc(F)c6F)ncc45)ccc3Cl)nc2c1` [Example 96, 2-(2-chloro-5-(3-(2,3-difluorophenyl)imidazo[1,5-a]pyridin-8-yl)phenyl)-5-fluoro-1H-benzo[d]imidazole] came in with a half-maximal effective concentration (EC50) of 67.2 nM.

For `Cc1ncc(-c2cccn3c(-c4cccc(F)c4F)ncc23)cc1-c1nc2cc(F)ccc2[nH]1` [Example 97, 2-(5-(3-(2,3-difluorophenyl)imidazo[1,5-a]pyridin-8-yl)-2-methylpyridin-3-yl)-5-fluoro-1H-benzo[d]imidazole], the EC50 was 64.9 nM.

In the case of `Fc1ccc2[nH]c(-c3cc(-c4cccn5c(-c6cccc(F)c6F)ncc45)cnc3C(F)(F)F)nc2c1` [Example 98, 2-(5-(3-(2,3-difluorophenyl)imidazo[1,5-a]pyridin-8-yl)-2-(trifluoromethyl)pyridin-3-yl)-5-fluoro-1H-benzo[d]imidazole], the EC50 turned out to be 36.6 nM.

For `Cc1ncc(-c2cccn3c(-c4cccc(F)c4F)ncc23)cc1-c1nc2ccccc2[nH]1` [Example 99, 2-(5-(3-(2,3-difluorophenyl)imidazo[1,5-a]pyridin-8-yl)-2-methylpyridin-3-yl)-1H-benzo[d]imidazole], a half-maximal effect (EC50) was put at 59.9 nM.
